Activity calls are given as the source filed them.
How the values were obtained:
[1] = target: T1, Hexokinase HKDC1 (Homo sapiens, UniProt Q2TB90); test: HKDC1 hexokinase activators, dose response, biochemical, W721R variant (AID 504730); assay type: functional
T1 sequence (Q2TB90 whole entry): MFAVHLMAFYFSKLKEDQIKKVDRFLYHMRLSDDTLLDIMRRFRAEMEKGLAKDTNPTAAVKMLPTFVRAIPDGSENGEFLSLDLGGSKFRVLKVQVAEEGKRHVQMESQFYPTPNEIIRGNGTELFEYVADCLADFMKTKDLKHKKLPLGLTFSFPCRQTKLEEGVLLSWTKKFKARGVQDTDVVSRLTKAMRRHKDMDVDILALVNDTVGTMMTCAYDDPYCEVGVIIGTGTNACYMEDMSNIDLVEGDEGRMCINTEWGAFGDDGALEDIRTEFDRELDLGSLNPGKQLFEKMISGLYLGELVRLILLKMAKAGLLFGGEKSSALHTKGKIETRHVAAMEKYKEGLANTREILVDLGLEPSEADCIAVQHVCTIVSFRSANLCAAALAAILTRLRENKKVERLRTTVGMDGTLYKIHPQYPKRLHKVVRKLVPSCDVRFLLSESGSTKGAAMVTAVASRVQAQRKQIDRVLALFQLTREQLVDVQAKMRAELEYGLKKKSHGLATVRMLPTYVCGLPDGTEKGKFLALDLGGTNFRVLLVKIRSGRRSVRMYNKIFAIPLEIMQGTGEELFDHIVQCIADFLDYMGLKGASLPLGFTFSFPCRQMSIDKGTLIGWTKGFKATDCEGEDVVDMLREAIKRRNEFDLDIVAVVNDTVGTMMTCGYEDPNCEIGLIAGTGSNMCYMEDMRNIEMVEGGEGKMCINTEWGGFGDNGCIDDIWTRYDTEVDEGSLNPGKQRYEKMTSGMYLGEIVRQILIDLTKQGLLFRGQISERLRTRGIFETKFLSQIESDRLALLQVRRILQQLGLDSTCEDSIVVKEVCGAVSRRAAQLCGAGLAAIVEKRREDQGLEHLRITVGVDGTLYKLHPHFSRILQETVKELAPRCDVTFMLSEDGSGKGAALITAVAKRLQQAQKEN

[2] = target: T2, Hexokinase-1 (Homo sapiens, UniProt P19367); test: hexokinase 1 activators, dose response, selectivity assay for HKDC1 activator project, biochemical (AID 504762); assay type: functional
T2 sequence (P19367 whole entry): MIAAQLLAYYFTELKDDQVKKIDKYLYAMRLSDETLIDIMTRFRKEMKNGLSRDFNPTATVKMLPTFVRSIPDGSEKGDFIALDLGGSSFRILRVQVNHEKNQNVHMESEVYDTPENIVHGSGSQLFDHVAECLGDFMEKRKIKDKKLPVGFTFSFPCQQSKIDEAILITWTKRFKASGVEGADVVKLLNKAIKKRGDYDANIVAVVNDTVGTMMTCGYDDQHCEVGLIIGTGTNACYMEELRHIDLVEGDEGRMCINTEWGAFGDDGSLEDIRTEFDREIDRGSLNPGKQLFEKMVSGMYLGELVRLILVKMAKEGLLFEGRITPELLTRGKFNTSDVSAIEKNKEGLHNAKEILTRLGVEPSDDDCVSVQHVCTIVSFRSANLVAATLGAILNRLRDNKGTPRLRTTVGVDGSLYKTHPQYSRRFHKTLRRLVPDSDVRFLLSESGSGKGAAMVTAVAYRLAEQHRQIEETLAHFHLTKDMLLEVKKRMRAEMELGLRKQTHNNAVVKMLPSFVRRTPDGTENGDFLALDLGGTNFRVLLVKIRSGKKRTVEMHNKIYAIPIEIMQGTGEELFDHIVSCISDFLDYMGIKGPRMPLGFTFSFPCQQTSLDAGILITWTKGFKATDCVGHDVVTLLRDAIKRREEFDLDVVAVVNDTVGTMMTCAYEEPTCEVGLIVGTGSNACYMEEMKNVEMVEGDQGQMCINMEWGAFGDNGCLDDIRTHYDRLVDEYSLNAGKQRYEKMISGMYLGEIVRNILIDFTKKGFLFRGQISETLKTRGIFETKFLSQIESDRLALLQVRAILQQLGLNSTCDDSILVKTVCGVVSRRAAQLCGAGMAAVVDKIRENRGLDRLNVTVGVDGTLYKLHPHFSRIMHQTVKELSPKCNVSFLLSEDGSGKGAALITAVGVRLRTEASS

[3] = target: T3, Kappa-type opioid receptor (Homo sapiens, UniProt P41145); test: SAR analysis of small molecule agonists of the kappa opioid receptor via a luminescent beta-arrestin assay - Set 3. [Related pubchem assays (depositor defined):AID1777, AID1785, AID1786, AID1966, AID2133, AID2136, AID2284, AID2500]; assay type: functional
[4] = target: T4, Mu-type opioid receptor (Homo sapiens, UniProt P35372); test: SAR Analysis of Agonists of the MOR Receptor using an Image-Based Assay - Set 3. [Related pubchem assays (depositor defined):AID1777, AID1785, AID1786, AID1966, AID2133, AID2136, AID2284, AID2285, AID2352]; assay type: functional
[5] = target: T3, Kappa-type opioid receptor; test: KOR agonist analogs, arrestin-GFP redistribution, SAR follow-up, imaging, image-based, set 3 (AID 488833); assay type: functional
[6] = target: T5, Delta-type opioid receptor (Homo sapiens, UniProt P41143); test: SAR Analysis of Agonists of the DOR Receptor using an Image-Based Assay - Set 3. [Related pubchem assays (depositor defined):AID1777, AID1786]; assay type: functional
[7] = target: Prothrombin (Bos taurus, UniProt P00735); test: thrombin inhibition, dose response, biochemical, fluorescence polarization, uHTS hits (AID 602369); assay type: functional
[8] = target: 26S proteasome non-ATPase regulatory subunit 14 (Homo sapiens, UniProt O00487); test: inhibition of proteasome subunit RPN11 – biochemical, fluorescence polarization, uHTS hits, confirmation (AID 602368); assay type: functional
[9] = target: T6, Small ubiquitin-related modifier 1 (Homo sapiens, UniProt P63165); test: inhibitors of SUMO1 peptide binding, dose response, biochemical, fluorescence polarization, uHTS hits (AID 624382); assay type: functional; settings: read-out: IC50_Mean
[10] = target: T6, Small ubiquitin-related modifier 1; test: inhibitors of SUMO1 partner interactions, dose response, biochemical, FRET (AID 624383); assay type: functional; settings: read-out: IC50_Mean
[11] = target: 72 kDa type IV collagenase (Homo sapiens, UniProt P08253); test: Dose Response validation of uHTS RPN11 inhibitor hits using a MMP-2 Fluorescence assay.; assay type: functional
[12] = target: T7, Dual specificity protein phosphatase 6 (Rattus norvegicus, UniProt Q64346); test: MKP-3 phosphatase inhibitors, primary screen, biochemical, rat enzyme, in vitro (AID 425)
T7 sequence (Q64346 whole entry): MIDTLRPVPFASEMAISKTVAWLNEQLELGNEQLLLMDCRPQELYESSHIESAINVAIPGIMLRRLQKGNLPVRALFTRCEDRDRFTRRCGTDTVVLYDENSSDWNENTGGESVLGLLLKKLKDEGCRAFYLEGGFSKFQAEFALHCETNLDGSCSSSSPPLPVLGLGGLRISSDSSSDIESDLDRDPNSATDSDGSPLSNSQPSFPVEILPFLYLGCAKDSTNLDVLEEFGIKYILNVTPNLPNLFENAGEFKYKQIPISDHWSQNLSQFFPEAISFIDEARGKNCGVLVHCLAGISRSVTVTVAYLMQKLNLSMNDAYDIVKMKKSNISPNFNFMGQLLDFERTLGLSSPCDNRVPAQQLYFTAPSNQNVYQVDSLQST

[13] = target: T8, Dual specificity protein phosphatase 3 (Homo sapiens, UniProt P51452); test: VHR1 phosphatase inhibitors, primary screen, biochemical, absorbance, uHTS (AID 1654)
[14] = target: T8, Dual specificity protein phosphatase 3; test: VHR1 phosphatase inhibitors, biochemical (AID 1878)
[15] = target: T9, SUMO-activating enzyme (Homo sapiens, UniProt Q9UBT2); test: inhibitors of in vitro SUMOylation cascade, primary screen, biochemical, HTRF, uHTS (AID 2006); assay type: protein-complex assay
[16] = target: T9, SUMO-activating enzyme; test: SUMOylation inhibitor hit validation, confirmation, SUMOylation inhibitor project, biochemical, AlphaScreen (AID 2018); assay type: functional
[17] = target: Beta-galactosidase (Escherichia coli, UniProt Q8VNN2); assay type: functional
[18] = target: T4, Mu-type opioid receptor; test: HTS Image-Based Screen for Agonists of the MOR Receptor. [Related pubchem assays (depositor defined):AID1777, AID1785, AID1786, AID2133]; assay type: functional
[19] = target: T3, Kappa-type opioid receptor; assay type: functional
[20] = target: T5, Delta-type opioid receptor; test: HTS Image-Based Screen for Agonists of the DOR Receptor. [Related pubchem assays (depositor defined):AID1777, AID1786, AID2133]; assay type: functional
[21] = target: T3, Kappa-type opioid receptor; assay type: functional; remark: listed apart in the source
[22] = target: T5, Delta-type opioid receptor; test: HTS Image-Based Screen for Antagonists of the DOR Receptor. [Related pubchem assays (depositor defined):AID1777, AID1785, AID1786, AID2133]; assay type: functional

T5 sequence (P41143 whole entry): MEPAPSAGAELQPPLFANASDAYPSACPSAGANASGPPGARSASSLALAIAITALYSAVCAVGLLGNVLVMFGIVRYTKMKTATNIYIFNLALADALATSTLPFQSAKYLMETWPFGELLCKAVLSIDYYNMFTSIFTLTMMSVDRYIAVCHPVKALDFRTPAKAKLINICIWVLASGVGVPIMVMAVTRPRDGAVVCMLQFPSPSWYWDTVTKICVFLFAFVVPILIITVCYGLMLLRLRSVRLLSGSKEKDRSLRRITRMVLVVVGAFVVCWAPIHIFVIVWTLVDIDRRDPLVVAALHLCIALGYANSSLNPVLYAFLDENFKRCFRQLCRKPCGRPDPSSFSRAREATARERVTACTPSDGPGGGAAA
T3 sequence (P41145 whole entry): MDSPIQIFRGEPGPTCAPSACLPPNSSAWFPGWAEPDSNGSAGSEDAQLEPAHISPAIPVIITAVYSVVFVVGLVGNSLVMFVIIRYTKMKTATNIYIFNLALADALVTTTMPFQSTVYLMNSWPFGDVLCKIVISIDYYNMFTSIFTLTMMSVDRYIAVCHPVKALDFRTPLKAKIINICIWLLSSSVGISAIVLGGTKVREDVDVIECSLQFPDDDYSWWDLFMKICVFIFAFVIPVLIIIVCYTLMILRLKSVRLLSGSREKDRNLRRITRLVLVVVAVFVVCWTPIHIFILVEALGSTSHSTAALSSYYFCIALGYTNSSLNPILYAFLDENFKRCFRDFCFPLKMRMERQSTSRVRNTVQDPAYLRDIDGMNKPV
T9 sequence (Q9UBE0 whole entry): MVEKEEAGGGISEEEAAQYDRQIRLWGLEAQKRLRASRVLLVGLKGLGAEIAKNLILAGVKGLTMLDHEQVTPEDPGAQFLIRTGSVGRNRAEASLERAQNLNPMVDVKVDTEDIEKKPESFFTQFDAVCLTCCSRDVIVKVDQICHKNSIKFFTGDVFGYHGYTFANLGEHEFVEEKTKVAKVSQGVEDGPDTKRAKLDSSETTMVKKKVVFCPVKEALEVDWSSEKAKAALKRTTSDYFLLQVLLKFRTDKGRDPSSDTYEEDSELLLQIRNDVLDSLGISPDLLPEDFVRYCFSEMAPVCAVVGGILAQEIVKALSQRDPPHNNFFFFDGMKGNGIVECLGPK
T9 sequence (Q9UBT2 whole entry): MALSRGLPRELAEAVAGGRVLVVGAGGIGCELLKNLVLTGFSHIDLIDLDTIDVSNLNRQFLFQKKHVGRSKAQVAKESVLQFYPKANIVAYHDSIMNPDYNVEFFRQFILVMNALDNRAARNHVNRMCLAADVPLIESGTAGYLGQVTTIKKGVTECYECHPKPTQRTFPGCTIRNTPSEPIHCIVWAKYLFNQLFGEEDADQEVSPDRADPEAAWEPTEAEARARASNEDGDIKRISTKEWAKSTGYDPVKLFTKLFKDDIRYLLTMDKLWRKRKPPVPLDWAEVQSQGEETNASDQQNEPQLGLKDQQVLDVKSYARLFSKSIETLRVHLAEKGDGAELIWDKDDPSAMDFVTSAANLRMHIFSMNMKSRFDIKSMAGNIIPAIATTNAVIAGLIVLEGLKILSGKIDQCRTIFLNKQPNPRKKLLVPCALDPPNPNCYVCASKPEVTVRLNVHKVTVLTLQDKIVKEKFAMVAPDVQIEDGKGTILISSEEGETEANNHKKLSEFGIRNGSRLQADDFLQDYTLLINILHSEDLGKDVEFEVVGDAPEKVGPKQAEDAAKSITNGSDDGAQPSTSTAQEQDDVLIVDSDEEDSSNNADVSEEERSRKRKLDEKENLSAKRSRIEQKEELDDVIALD
T4 sequence (P35372 whole entry): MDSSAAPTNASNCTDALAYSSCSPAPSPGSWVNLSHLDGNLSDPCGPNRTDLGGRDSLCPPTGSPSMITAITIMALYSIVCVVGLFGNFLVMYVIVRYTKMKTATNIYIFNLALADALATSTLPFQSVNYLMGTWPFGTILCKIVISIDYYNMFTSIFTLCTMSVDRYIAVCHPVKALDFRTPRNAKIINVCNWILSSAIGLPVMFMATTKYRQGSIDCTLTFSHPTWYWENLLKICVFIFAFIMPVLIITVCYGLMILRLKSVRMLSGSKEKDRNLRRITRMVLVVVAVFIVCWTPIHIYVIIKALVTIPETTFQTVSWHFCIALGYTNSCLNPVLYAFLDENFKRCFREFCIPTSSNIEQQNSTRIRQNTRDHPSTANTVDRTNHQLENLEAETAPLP
T8 sequence (P51452 whole entry): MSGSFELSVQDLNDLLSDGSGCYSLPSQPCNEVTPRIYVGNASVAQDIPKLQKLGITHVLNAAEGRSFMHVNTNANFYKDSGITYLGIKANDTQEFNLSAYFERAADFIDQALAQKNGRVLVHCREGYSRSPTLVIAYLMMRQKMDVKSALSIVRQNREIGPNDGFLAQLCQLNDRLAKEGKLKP
T6 sequence (P63165 whole entry): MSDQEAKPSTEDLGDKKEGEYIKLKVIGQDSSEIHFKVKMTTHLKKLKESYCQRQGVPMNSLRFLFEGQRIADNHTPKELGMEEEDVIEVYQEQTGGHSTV
26S proteasome non-ATPase regulatory subunit 14, sequence (O00487 whole entry): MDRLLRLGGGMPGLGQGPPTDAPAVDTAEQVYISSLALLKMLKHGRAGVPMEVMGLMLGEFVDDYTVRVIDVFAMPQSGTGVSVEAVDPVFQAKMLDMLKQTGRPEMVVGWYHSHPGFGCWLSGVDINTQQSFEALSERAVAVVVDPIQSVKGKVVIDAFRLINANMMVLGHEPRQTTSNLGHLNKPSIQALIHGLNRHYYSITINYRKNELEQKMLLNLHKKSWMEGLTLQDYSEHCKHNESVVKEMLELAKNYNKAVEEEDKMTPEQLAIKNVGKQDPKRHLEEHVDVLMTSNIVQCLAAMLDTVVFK
Beta-galactosidase, sequence (Q8VNN2 whole entry): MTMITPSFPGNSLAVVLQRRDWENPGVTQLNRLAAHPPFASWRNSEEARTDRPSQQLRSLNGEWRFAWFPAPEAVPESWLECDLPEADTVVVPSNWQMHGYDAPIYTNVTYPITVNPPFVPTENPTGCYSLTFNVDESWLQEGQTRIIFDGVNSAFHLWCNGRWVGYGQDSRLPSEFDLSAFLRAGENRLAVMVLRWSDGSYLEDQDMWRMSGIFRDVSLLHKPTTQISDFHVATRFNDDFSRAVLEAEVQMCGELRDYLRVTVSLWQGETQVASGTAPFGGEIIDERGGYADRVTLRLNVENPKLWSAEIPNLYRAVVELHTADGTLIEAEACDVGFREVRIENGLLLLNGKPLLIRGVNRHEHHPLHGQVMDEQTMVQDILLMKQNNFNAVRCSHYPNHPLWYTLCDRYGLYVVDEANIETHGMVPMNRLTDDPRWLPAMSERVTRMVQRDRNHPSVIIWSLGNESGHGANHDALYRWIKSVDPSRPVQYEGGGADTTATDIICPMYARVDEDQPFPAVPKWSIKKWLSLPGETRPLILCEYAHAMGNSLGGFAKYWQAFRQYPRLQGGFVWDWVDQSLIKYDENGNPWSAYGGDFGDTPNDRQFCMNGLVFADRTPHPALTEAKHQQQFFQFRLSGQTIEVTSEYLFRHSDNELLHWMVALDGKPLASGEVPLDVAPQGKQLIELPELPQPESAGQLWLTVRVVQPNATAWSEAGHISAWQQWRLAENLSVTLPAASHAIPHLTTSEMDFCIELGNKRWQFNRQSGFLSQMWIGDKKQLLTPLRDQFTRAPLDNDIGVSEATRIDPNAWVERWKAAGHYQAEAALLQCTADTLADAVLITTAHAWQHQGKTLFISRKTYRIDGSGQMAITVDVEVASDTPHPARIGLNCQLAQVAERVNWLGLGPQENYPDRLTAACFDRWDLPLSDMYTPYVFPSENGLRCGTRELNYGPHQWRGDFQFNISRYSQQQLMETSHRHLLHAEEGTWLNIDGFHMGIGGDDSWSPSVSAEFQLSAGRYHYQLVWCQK
72 kDa type IV collagenase, sequence (P08253 whole entry): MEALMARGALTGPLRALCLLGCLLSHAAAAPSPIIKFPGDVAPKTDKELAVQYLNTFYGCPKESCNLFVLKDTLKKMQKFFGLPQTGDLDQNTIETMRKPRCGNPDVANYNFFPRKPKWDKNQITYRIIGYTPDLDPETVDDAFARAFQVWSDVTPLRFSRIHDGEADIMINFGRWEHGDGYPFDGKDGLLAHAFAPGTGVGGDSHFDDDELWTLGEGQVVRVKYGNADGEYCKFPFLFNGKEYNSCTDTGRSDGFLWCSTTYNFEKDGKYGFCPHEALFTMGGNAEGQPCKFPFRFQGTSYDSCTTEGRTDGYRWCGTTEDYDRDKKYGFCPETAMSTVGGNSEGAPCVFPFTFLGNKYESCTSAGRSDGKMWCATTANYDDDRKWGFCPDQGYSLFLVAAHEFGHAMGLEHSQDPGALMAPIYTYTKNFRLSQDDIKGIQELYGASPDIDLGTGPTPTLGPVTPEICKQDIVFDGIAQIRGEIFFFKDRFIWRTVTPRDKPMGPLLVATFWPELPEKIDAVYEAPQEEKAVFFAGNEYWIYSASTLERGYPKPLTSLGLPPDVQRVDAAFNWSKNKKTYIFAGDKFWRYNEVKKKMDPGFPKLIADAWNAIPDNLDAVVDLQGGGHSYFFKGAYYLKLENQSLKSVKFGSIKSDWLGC

SMILES: Nc1nc(-c2cccc(Br)c2)cs1
- EC50 [1]: 31.8 µM (inactive)
- EC50 [2]: 49.3 µM (inactive)

SMILES: FC(F)(F)c1ccc(CSc2nnc(-c3ccccn3)n2Cc2cccs2)cc1
- EC50 [3]: 1.23 µM (active)
- EC50 [4]: > 32 µM (inactive)
- EC50 [5]: 0.621 µM (active)
- EC50 [6]: > 32 µM (inactive)

SMILES: O=C(CSc1nnc(SCc2ccc(Cl)cc2)s1)N/N=C/c1c[nH]c2ccccc12
- IC50 [7]: 82.5 µM (active)
- IC50 [8]: 9.99 µM (active)
- IC50 [9]: > 66.6 µM (inactive)
- IC50 [10]: 2.02 µM (active)
- IC50 [11]: > 100 µM (inactive)
- IC50 [12]: 76.5 µM (active)
- IC50 [13]: 16.2 µM (active)
- IC50 [14]: 3.82 µM (active)
- IC50 [15]: 48.3 µM (active)
- IC50 [16]: 1.54 µM (active)

SMILES: Cc1nc(-c2ccccn2)[nH]c(=S)c1Cl
- EC50 [17]: > 31.5 µM (inactive)
- EC50 [18]: > 32 µM (inactive)
- IC50 [19]: 20.3 µM (inactive)
- EC50 [20]: > 32 µM (inactive)
- IC50 [21]: > 32 µM
- IC50 [22]: > 32 µM (inactive)

Reference: ChEMBL document CHEMBL1201862, “PubChem BioAssay data set” (2004)
